Laboratory results as given in US5496823A, “Pharmaceutical composition for increasing bladder capacity” (Hoechst Japan Limited, priority 1991, dated 1996).

Assays:
[1] = tested on: urination-reflexing constriction of the bladder; experiment: urination-reflexing constriction of the bladder (cystometrogram) in anesthetized rats, intravenous administration; format: in vivo, SD male rats; conditions: for Bladder capacity, First / Bladder capacity, Second / Urination constriction pressure, First / Urination constriction pressure, Second / Urination threshold pressure, First / Urination threshold pressure, Second: relative level, pre-drug value = 1, mean ± SD
Text: (§1) Effects of test drugs on urination-reflexing constriction of the bladder in anesthetized rats were examined according to Morikawa, et al. [in Oyo Yakuri/Pharmacometrics, Vol. 37, No. 1, pages 27-37, (1989)]. In the following examples, the bladder capacity designates the time from a urination to the next urination (urination interval), urination threshold pressure designates intracystic pressure) immediately prior to initiation of urination constriction and urination constriction pressure designates maximum internal pressure on urination constriction. Figures in the below table indicate relative level from the first and second reactions after administration of a drug taking the measured value before administration of the drug as 1 for bladder capacity (min.), urination threshold pressure (mmHg) and urination constriction pressure (mmHg), respectively.
(§2) Groups of 4-6 SD male rats were used and each animal was subjected to laparotomy under anesthesia with urethan, ligature around the ureter and then exposure of the bladder, on the top of which was perforated with a small opening, through which a cannula with a three-way step cock was inserted.
(§3) One of the three-way stop cock was connected to a syringe for continuously introducing a physiological saline solution and another to a pressure transducer for the measurement of intrasystic pressure.
(§4) A physiological saline solution was introduced into the bladder at a rate of 55 μl per min., and changes in intracystic pressure were recorded until urination. From the intracystic pressure curve were determined bladder capacity, urination threshold pressure and urination constriction pressure to examine the action of the introduction of physiological saline solution.
The drug was given via a polyethylene tube inserted into the femoral vein. […]

[2] = Japanese Patent Publication No. 33120/1977; cited from earlier work
[3] = tested on: urination-reflexing constriction of the bladder; experiment: urination-reflexing constriction of the bladder (cystometrogram) in anesthetized rats, intraduodenal administration; format: in vivo, SD male rats; conditions: relative level, pre-drug value = 1, mean ± SD
Text: as §1, §2, §3, §4
Groups of 4-5 SD male rats were fasted overnight and subjected to the same experimental procedures as in Example 1. The drug was given via a polyethylene tube inserted into the duodenum.

In the case of `CCOCn1cnc2c1c(=O)n(CCCCC(C)(C)O)c(=O)n2C` [Compound VI, 3,7-dihydro-3-methyl-1-(5-hydroxy-5-methylhexyl)-7-ethoxymethyl-1H-purine-2,6-dione], the “Bladder capacity, First” value ([1]; Table 3, 20 mg/kg i.v., n=5) is reported as 1.8 ± 0.9, the “Bladder capacity, Second” value ([1]; Table 3, 20 mg/kg i.v., n=5) is reported as 1.4 ± 1.0 and the “Urination constriction pressure, First” value ([1]; Table 3, 20 mg/kg i.v., n=5) is reported as 1.0 ± 0.1. The “Urination constriction pressure, Second” value ([1]; Table 3, 20 mg/kg i.v., n=5) was 1.0 ± 0.1, the “Urination threshold pressure, First” value ([1]; Table 3, 20 mg/kg i.v., n=5) was 1.3 ± 0.9 and the “Urination threshold pressure, Second” value ([1]; Table 3, 20 mg/kg i.v., n=5) was 1.0 ± 0.4.

In the case of `CCCn1cnc2c1c(=O)n(CCCCC(C)=O)c(=O)n2C` [propentofylline, 3,7-dihydro-3-methyl-1-(5-oxohexyl)-7-propyl-1H-purine-2,6-dione], the “action on vertebral artery (in words)” value [2] is listed as “specifically active on vertebral artery”, the “blood flow during cerebral circulation (in words)” value [2] is listed as “increase blood flow highly selectively during cerebral circulation” and the “Bladder capacity, First” value ([3]; 3 mg/kg intraduodenal, n=4) is listed as 1.1 ± 0.2. The “Bladder capacity, Second” value ([3]; 3 mg/kg intraduodenal, n=4) was 1.1 ± 0.3, the “Urination constriction pressure, First” value ([3]; 3 mg/kg intraduodenal, n=4) was 1.1 ± 0.1 and the “Urination constriction pressure, Second” value ([3]; 3 mg/kg intraduodenal, n=4) was 1.1 ± 0.2. The “Urination threshold pressure, First” value ([3]; 3 mg/kg intraduodenal, n=4) was 1.0 ± 0.2, the “Urination threshold pressure, Second” value ([3]; 3 mg/kg intraduodenal, n=4) was 1.0 ± 0.2 and the “Bladder capacity, First” value ([3]; 10 mg/kg intraduodenal, n=4) was 2.7 ± 1.8. For the same molecule, the “Bladder capacity, Second” value ([3]; 10 mg/kg intraduodenal, n=4) was 1.0 ± 1.0, the “Urination constriction pressure, First” value ([3]; 10 mg/kg intraduodenal, n=4) was 1.0 ± 0.1 and the “Urination constriction pressure, Second” value ([3]; 10 mg/kg intraduodenal, n=4) was 0.9 ± 0.1. The “Urination threshold pressure, First” value ([3]; 10 mg/kg intraduodenal, n=4) was 1.3 ± 0.3, the “Urination threshold pressure, Second” value ([3]; 10 mg/kg intraduodenal, n=4) was 1.3 ± 0.5 and the “Bladder capacity, First” value ([3]; 30 mg/kg intraduodenal, n=5) was 2.7 ± 1.6. For the same molecule, the “Bladder capacity, Second” value ([3]; 30 mg/kg intraduodenal, n=5) was 0.8 ± 0.6, the “Urination constriction pressure, First” value ([3]; 30 mg/kg intraduodenal, n=5) was 0.9 ± 0.1 and the “Urination constriction pressure, Second” value ([3]; 30 mg/kg intraduodenal, n=5) was 1.0 ± 0.1. The “Urination threshold pressure, First” value ([3]; 30 mg/kg intraduodenal, n=5) was 1.6 ± 0.9, the “Urination threshold pressure, Second” value ([3]; 30 mg/kg intraduodenal, n=5) was 1.4 ± 0.9 and the “Bladder capacity, Second” value ([3]; 50 mg/kg intraduodenal, n=5) was 0.6 ± 0.2. For the same molecule, the “Urination constriction pressure, First” value ([3]; 50 mg/kg intraduodenal, n=5) was 1.0 ± 0.1, the “Urination constriction pressure, Second” value ([3]; 50 mg/kg intraduodenal, n=5) was 1.0 and the “Urination threshold pressure, Second” value ([3]; 50 mg/kg intraduodenal, n=5) was 1.4 ± 0.7. For the same molecule, the “Bladder capacity, First” value ([3]; 50 mg/kg intraduodenal, n=5, P < 0.01) was 4.3 ± 2.1, the “Urination threshold pressure, First” value ([3]; 50 mg/kg intraduodenal, n=5, P < 0.05) was 1.7 ± 0.6 and the “Bladder capacity, First” value ([1]; 0.2 mg/kg i.v., n=5) was 1.2 ± 0.8. The “Bladder capacity, Second” value ([1]; 0.2 mg/kg i.v., n=5) was 1.1 ± 0.4, the “Urination constriction pressure, First” value ([1]; 0.2 mg/kg i.v., n=5) was 1.0 ± 0.1 and the “Urination constriction pressure, Second” value ([1]; 0.2 mg/kg i.v., n=5) was 0.9 ± 0.1. For the same molecule, the “Urination threshold pressure, First” value ([1]; 0.2 mg/kg i.v., n=5) was 1.2 ± 0.5, the “Urination threshold pressure, Second” value ([1]; 0.2 mg/kg i.v., n=5) was 1.0 ± 0.3 and the “Bladder capacity, First” value ([1]; 1 mg/kg i.v., n=5) was 2.5 ± 1.9. For the same molecule, the “Bladder capacity, Second” value ([1]; 1 mg/kg i.v., n=5) was 0.7 ± 0.2, the “Urination constriction pressure, First” value ([1]; 1 mg/kg i.v., n=5) was 1.0 ± 0.1 and the “Urination constriction pressure, Second” value ([1]; 1 mg/kg i.v., n=5) was 1.1 ± 0.2. The “Urination threshold pressure, First” value ([1]; 1 mg/kg i.v., n=5) was 1.1 ± 0.1, the “Urination threshold pressure, Second” value ([1]; 1 mg/kg i.v., n=5) was 1.1 ± 0.2 and the “Bladder capacity, Second” value ([1]; 5 mg/kg i.v., n=6) was 1.0 ± 0.5. The “Urination constriction pressure, First” value ([1]; 5 mg/kg i.v., n=6) was 1.0 ± 0.1, the “Urination constriction pressure, Second” value ([1]; 5 mg/kg i.v., n=6) was 1.0 ± 0.2 and the “Urination threshold pressure, First” value ([1]; 5 mg/kg i.v., n=6) was 1.5 ± 0.4. The “Urination threshold pressure, Second” value ([1]; 5 mg/kg i.v., n=6) was 1.2 ± 0.6, the “Bladder capacity, First” value ([1]; 5 mg/kg i.v., n=6, P < 0.05) was 4.1 ± 2.6 and the “Bladder capacity, Second” value ([1]; 10 mg/kg i.v., n=5) was 0.9 ± 0.5. The “Urination constriction pressure, First” value ([1]; 10 mg/kg i.v., n=5) was 1.0 ± 0.2, the “Urination constriction pressure, Second” value ([1]; 10 mg/kg i.v., n=5) was 1.0 ± 0.2 and the “Urination threshold pressure, Second” value ([1]; 10 mg/kg i.v., n=5) was 1.1 ± 0.3. For the same molecule, the “Urination threshold pressure, First” value ([1]; 10 mg/kg i.v., n=5, P < 0.01) was 2.1 ± 0.7, the “Bladder capacity, First” value ([1]; 10 mg/kg i.v., n=5, P < 0.05) was 3.5 ± 1.1 and the “Bladder capacity, Second” value ([1]; 20 mg/kg i.v., n=5) was 1.0 ± 0.8. The “Urination constriction pressure, First” value ([1]; 20 mg/kg i.v., n=5) was 1.0 ± 0.1, the “Urination constriction pressure, Second” value ([1]; 20 mg/kg i.v., n=5) was 1.0 ± 0.1 and the “Urination threshold pressure, Second” value ([1]; 20 mg/kg i.v., n=5) was 1.5 ± 0.8. The “Urination threshold pressure, First” value ([1]; 20 mg/kg i.v., n=5, P < 0.01) was 2.5 ± 0.8, the “Bladder capacity, First” value ([1]; 20 mg/kg i.v., n=5, P < 0.05) was 4.9 ± 3.2 and the “constrictive force of the bladder (in words)” value ([1]; animal experiments, summary) was “almost no influence upon constrictive force of the bladder”. For the same molecule, the “substantial bladder capacity / volume (in words)” value ([1]; animal experiments, summary) was “increased substantial bladder capacity”, the “urination intervals (in words)” value ([1]; animal experiments, summary) was “prolonged urination intervals” and the “urination threshold pressure (in words)” value ([1]; animal experiments, summary) was “increased urination threshold pressure”.
